From patent publication US8093393B2, “Cationic ceramides, and analogs thereof, and their use for preventing or treating cancer” (MUSC Foundation for Research Development, priority 2004, dated 2012)
Like-named read-outs stand apart in the source and are kept apart here.

Experiments:
UM-SCC-22A cells = settings: 1 μM
Description: B) The subcellular accumulation of L-t-C6-Pyr-Cer at 1-48 hr was detected by LC/MS in UM-SCC-22A cells after differential centrifugation, as described in Materials and Methods.
Subcellular fractionation, and the analysis of ceramide subspecies by mass spectroscopy (MS). The sub-cellular accumulation of L-t-C6-Pyr-Cer was analyzed by utilizing normal phase high performance liquid chromatography and mass spectroscopy (LC/MS). […] In short, cells were incubated in a buffer containing 300 mM sucrose, 10 mM Hepes (pH 7.4), 1 mM EDTA and 0.5 mM PMSF for 30 minutes on ice. The cells were then passed through 25-gauge needle for 5 strokes, and centrifuged at 1,000×g for 10 mM, 10,000×g for 10 min, and 100,000×g for 60 min at 4° C., for collection of the nuclei-, mitochondria-enriched fractions, and microsomes, respectively.

hTERT = hTERT mRNA (Q-PCR) and protein (Western blot) in tumor tissues; format: in vivo, human
Source text: FIG. 29. […] In (B), DNA samples obtained from tumors treated with GMZ (G), L-t-C6-Pyr-Cer (Cer), and the combination of L-t-C6-Pyr-Cer with GMZ (G/C, lanes 2-4, respectively) were compared to that of untreated (U) tumors (lane 1). Lanes 5 and 6 contain DNA samples with low (L) and high (H) molecular weight (3.9 and 10.2 kb, respectively) telomeres. In (D) The levels of hTERT protein in samples obtained from tumors treated with GMZ (G), L-t-C6-Pyr-Cer (Cer), and the combination of L-t-C6-Pyr-Cer with GMZ (G/Cer, lanes 2-4, respectively) were determined by Western blot analysis using rabbit polyclonal anti-hTERT antibody, and compared to that of untreated (U) tumors (lane 1). […]
Determination of telomerase activity, hTERT mRNA and protein levels in tumor tissues. Telomerase activity in tissues was measured by the PCR-based telomere repeat amplification protocol (TRAP) using TRAPeze kit (Invitrogen) which includes a 36-bp internal control to allow quantification of activity. The intensity of telomere-specific DNA bands, measured using Quantity One (BioRad) software, were normalized to the intensity of internal control bands for each sample on polyacrylamide gels for quantification. […] The protein levels of hTERT in these tumor tissue extracts (in CHAPS buffer) were determined by Western blot analysis using anti-hTERT rabbit polyclonal antibody (CalBiochem) at 1:1000 dilution. […]

[1] = test system: MCF7 breast carcinoma cells; assay: Cell proliferation and viability, Trypan blue exclusion assay; format: cell-based; settings: 48 h
Method in brief: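 Cells seeded overnight in 10% FCS, then exposed to LCL compounds at 0-20 μM in ethanol (below 0.1%) for 48 h. Viable cell numbers counted by Trypan blue exclusion under light microscope, expressed as percentage of untreated controls; duplicate samples, two or three independent experiments.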

[2] = BALB/c mice
Description: The determination of MTD, and pharmacokinetic parameters, such as clearance from the serum, and bioaccumulation in various organs, of L-t-C6-Pyr-Cer in vivo. A) MTD of L-t-C6-Pyr-Cer was determined in dose escalation studies, in which BALB/c mice were treated (by IP injections) with increasing concentrations of the compound (10-150 mg/kg), dissolved in sterile saline solution, for 24 hr. […] B and C) The levels of L-t-C6-Pyr-Cer in the serum (B) or in the vital organs (C) of the BALB/c mice were measured by LC/MS after IP injection of the compound for various time points. The experiments were performed in two independent trials as duplicates, and error bars represent standard deviations.
Animal studies. […] The maximum tolerated dose (MTD) of L-t-C6-Pyr-Cer was determined by dose escalation studies. In short, 7-week-old BALB/c mice were treated with increasing concentrations of the compound for various time intervals. Possible toxicity of the compound to the vital organs of the animals was analyzed by both gross examination, and histopathology. The accumulation of the compound in vital organs and in the serum was also determined by LC/MS as described previously Koybasi S et al. J Biol Chem 2004; 279:44311-44319).

UM-SCC-22A xenografts [3] = settings: 40 mg/kg alone or plus GMZ 80 mg/kg, 24 days
Description: Treatment of UM-SCC-22A (hypopharynx) xenografts in SCID mice. […] Once the xenograft achieved a standard volume, the animals were randomized to receive no treatment (control), LCL-194 alone (40 mg/kg), LCL-124 alone (40 mg/kg), LCL-124 (40 mg/kg) plus GMZ (80 mg/kg), GMZ (80 mg/kg)+DOX (2 mg/kg), or 5FU plus cisplatin (25 mg/kg each). Tumors were measured every 4 days for 24 days.
The compound was further tested in an animal model of SCID mouse and UM-SCC-22A xenografts (hypopharynx). Xenograft development and treatment was carried out by standard methods. Once the xenograft achieved a standard volume, the animals were randomized to receive no treatment (control), LCL-194 alone (40 mg/kg), LCL-124 alone (40 mg/kg), LCL-124 (40 mg/kg) plus GMZ (80 mg/kg), GMZ (80 mg/kg)+DOX (2 mg/kg), or 5FU plus cisplatin (25 mg/kg each). Tumors were measured every 4 days.

UM-SCC-22A xenografts [4] = test system: UM-SCC-22A xenografts
Description: A) Upper Panel: In vivo therapeutic efficacy of L-t-C6-Pyr-Cer in combination with GMZ was determined in SKID mice harboring the UM-SCC-22A xenografts implanted in both flanks. The animals were treated with L-t-C6-Pyr-Cer and GMZ at 40 mg/kg/each every 4 days for 20 days. […] In these experiments, each group contained 6 mice, harboring 12 tumors, in this study. Error bars represent standard deviations, and p values were calculated. […] C) The blood counts, the levels of serum enzymes, and electrolytes were analyzed in response to L-t-C6-Pyr-Cer alone or in combination with GMZ in SKID mice.
After tumors were grown to about 200-400 mm^3 (about two weeks after implantation), the mice were treated without or with chemotherapeutic agents with intraperitoneal (IP) injection (alone or in combination) at half of their maximum tolerated doses (MTD) every 4 days for 20 days. Tumor volumes and the weights of the animals were measured before each treatment, and tumor sizes were measured at the end of the study. The endpoint was tumor rate of growth and/or tumor volume, which was calculated using the formula: length×width^2×0.52. Each experiment included at least 6 mice (which harbored two SCC tumors in flanks) per each treatment, and experiments were done at least in two independent trials.

telomeres = assay: Telomere length (TRF) in tumor tissues; format: in vivo, human; settings: versus untreated controls
Source text: FIG. 29. […] In (B), DNA samples obtained from tumors treated with GMZ (G), L-t-C6-Pyr-Cer (Cer), and the combination of L-t-C6-Pyr-Cer with GMZ (G/C, lanes 2-4, respectively) were compared to that of untreated (U) tumors (lane 1). Lanes 5 and 6 contain DNA samples with low (L) and high (H) molecular weight (3.9 and 10.2 kb, respectively) telomeres. In (D) The levels of hTERT protein in samples obtained from tumors treated with GMZ (G), L-t-C6-Pyr-Cer (Cer), and the combination of L-t-C6-Pyr-Cer with GMZ (G/Cer, lanes 2-4, respectively) were determined by Western blot analysis using rabbit polyclonal anti-hTERT antibody, and compared to that of untreated (U) tumors (lane 1). Lanes 5 and 6 contain samples from telomerase positive (+) and negative (−) extracts. Beta-actin levels of these samples were used as loading controls (lanes 1-6, lower panel). The data shown are representative of two independent trials, and error bars represent standard deviations.
Analysis of telomere length in tumor tissues. The measurement of telomere length was performed in total genomic DNA samples isolated from tumor tissues of the SCID mice using Telomere Restriction Fragment (TRF) Length measurement kit (Roche) by Southern blotting as described in Sundararaj, et al. J Biol Chem 2004; 279:6152-6162.

UM-SCC-14A cells = settings: read-out: IC50, growth; UM-SCC14A, 48 hr
Description: Cells were grown in DMEM containing 10% FCS and 1% penicillin/streptomycin at 37° C. in 5% CO2.
MTT cell survival assay and isobologram studies. The concentrations of agents that inhibited cell growth by 50% (IC50) were determined from cell survival plots obtained by MTT assays. […] A straight line joining points on x- and y-axes represent the IC50 concentrations of GMZ and L-t-C6-Pyr-Cer alone, and the points representing the IC50 concentrations of the combination of the two agents are represented as scatter plots on the same graphs. […] The experiments were performed as triplicates in at least 3 independent experiments.

CCCCCCCCCCCCC/C=C/[C@H](O)[C@H](CO)NC(=O)CCCCC[n+]1ccccc1.[Br-] [LCL124, L-threo-2-N-[6′-(1″-Pyridinium)-hexanoyl]-sphingosine Bromide]
amount in supernatant or pellet of 100,000×g fractions (UM-SCC-22A cells): either not detectable (at 1-6 hr), or minimal (at 12-48 hr) | level in the 10,000×g (mitochondria enriched) fraction (UM-SCC-22A cells; 3-48 hr): 1,000-3,000 pmol/0.1 mg protein | level in the 1,000×g (nuclei enriched) fraction (UM-SCC-22A cells; 6-48 hr): 250-2,500 pmol/0.1 mg protein | hTERT mRNA levels in tumors (hTERT; Q-PCR): decreased levels of hTERT mRNA and protein expression | hTERT protein levels in tumors (hTERT; Western blot): decreased levels of hTERT mRNA and protein expression | inhibitory effect on MCF7 cell growth (in words) [1]: caused inhibitory effect on MCF7 cell growth | doses without any detectable toxicity ([2]; 1-4 days): 10 to 80 mg/kg | maximum tolerated dose (MTD) ([2]; IP): 80 mg/kg | toxic concentrations (severe abdominal bloating, intestinal malfunction) ([2]; IP, 24 hr): ≥ 100 mg/kg | single dose resulting in toxicity (abdominal bloating, intestinal malfunction) ([2]; IP, after about 6 hr): 120 to 150 mg/mL | suppression of xenograft tumor growth (UM-SCC-22A xenografts [3]): can act alone or in combination with GMZ to suppress growth of chemotherapy-resistant classes of tumors | inhibition of HNSCC tumor growth (UM-SCC-22A xenografts [4]; 40 mg/kg/each IP every 4 days for 20 days): some inhibition of HNSCC tumor growth | blood counts, serum enzyme activities and electrolytes (UM-SCC-22A xenografts [4]; about 20 parameters): no detectable abnormalities | toxicity to vital organs, histopathology (UM-SCC-22A xenografts [4]; after completion of the study): no detectable toxicity | reduction of TRF (telomere) length in tumors (telomeres): about 500 bp | IC50 (UM-SCC-14A cells): 1000 to 2000 nM | level in the intestines (absence of GMZ): about 120 pmol/mg protein | level in the liver (absence of GMZ): ~100 pmol/mg protein | fold higher level in tumors than in intestines or liver (absence or presence of GMZ): 3-6 fold | level in the tumors (combined with GMZ): 3,100 pmol/mg | increase of level in the tumors when combined with GMZ (mouse, in vivo): about 40% | level in the intestines (presence of GMZ): 1,000 pmol/mg protein | level in the liver (presence of GMZ): 300 pmol/mg protein | accumulation in the tumor site (single agent): about 2,200 pmol/mg
